In patent US12312359B2 (Vitae Pharmaceuticals, LLC, priority 2016, dated 2025):

How the values were obtained:
[1] = from 5 to 95% RH
Description: Moisture sorption/desorption data were collected on a VTI SGA-100 Vapor Sorption Analyzer. NaCl and PVP were used as calibration standards. Samples were not dried prior to analysis. Sorption and desorption data were collected over a range from 5% to 95% RH at 10% RH increments under a nitrogen purge. The equilibrium criterion used for analysis was less than 0.0100% weight change in 5 minutes with a maximum equilibration time of 3 hours. Data were not corrected for the initial moisture content of the samples.

[2] = Physical stability analysis of sesquifumaric acid salt forms (drying, heating); format: physicochemical

## CC(C)N(C(=O)c1cc(F)ccc1Oc1cncnc1N1CC2(CCN(CC3CCC(NS(C)(=O)=O)CC3)CC2)C1)C(C)C.CC(C)N(C(=O)c1cc(F)ccc1Oc1cncnc1N1CC2(CCN(CC3CCC(NS(C)(=O)=O)CC3)CC2)C1)C(C)C.O.O.O=C(O)/C=C/C(=O)O.O=C(O)/C=C/C(=O)O.O=C(O)/C=C/C(=O)O (stereo not shown) [Form A, 5-fluoro-N,N-diisopropyl-2-((4-(7-(((1r,4r)-4-(methylsulfonamido)cyclohexyl)methyl)-2,7-diazaspiro[3.5]nonan-2-yl)pyrimidin-5-yl)oxy)benzamide sesquifumaric acid salt monohydrate]
[1]
  DVS weight gain: 0.92%
[2]; 70° C. vacuum 3 days
  Observation (weight change): no weight change
  Result (solid form after physical stability stress): Form A + peaks
[2]; 95° C., under N2, 2 days
  Result (solid form after physical stability stress): Form A
[2]; 105° C. 3 days
  Observation (LOD): 20% LOD
  Result (solid form after physical stability stress): Form A
[2]; ambient vacuum 3 days
  Observation (weight change): no weight change
  Result (solid form after physical stability stress): Form A
[2]; heating, XRPD pattern at 165° C.
  Form change in variable temperature (VT)-XRPD: No form change observed
[2]; vacuum drying or heating
  Changes upon vacuum drying or heating: No changes
